Data: article PMC4685510, “A Cell Biologist’s Field Guide to Aurora Kinase Inhibitors” (Frontiers in Oncology, 2015)
Where two headings read alike, the source gives them in different places.

How the values were obtained:
Experiment in all cases: biochemical
Assay type in all cases: biochemical
[1] = target: 363 human kinases (including Aurora A/B/C) (Homo sapiens, UniProt Q9H4B4); details: PLK3; for remaining activity at 0.1 µM: 100 nM; for remaining activity at 0.1 µM / remaining activity at 0.5 µM: read-out: % Enzyme Activity (relative to DMSO controls)
Source text: (§1) However, the Aurora A/B selectivity ratios derived from our in vitro and in vivo data can be compared to prioritize inhibitors.

[2] = target: T1, 363 human kinases (including Aurora A/B/C) (Homo sapiens, UniProt P21709); details: EPHA1, [ATP] 20 µM; for remaining activity at 0.1 µM: 100 nM; for remaining activity at 0.1 µM / remaining activity at 0.5 µM: read-out: % Enzyme Activity (relative to DMSO controls)
T1 sequence (P21709 26-976): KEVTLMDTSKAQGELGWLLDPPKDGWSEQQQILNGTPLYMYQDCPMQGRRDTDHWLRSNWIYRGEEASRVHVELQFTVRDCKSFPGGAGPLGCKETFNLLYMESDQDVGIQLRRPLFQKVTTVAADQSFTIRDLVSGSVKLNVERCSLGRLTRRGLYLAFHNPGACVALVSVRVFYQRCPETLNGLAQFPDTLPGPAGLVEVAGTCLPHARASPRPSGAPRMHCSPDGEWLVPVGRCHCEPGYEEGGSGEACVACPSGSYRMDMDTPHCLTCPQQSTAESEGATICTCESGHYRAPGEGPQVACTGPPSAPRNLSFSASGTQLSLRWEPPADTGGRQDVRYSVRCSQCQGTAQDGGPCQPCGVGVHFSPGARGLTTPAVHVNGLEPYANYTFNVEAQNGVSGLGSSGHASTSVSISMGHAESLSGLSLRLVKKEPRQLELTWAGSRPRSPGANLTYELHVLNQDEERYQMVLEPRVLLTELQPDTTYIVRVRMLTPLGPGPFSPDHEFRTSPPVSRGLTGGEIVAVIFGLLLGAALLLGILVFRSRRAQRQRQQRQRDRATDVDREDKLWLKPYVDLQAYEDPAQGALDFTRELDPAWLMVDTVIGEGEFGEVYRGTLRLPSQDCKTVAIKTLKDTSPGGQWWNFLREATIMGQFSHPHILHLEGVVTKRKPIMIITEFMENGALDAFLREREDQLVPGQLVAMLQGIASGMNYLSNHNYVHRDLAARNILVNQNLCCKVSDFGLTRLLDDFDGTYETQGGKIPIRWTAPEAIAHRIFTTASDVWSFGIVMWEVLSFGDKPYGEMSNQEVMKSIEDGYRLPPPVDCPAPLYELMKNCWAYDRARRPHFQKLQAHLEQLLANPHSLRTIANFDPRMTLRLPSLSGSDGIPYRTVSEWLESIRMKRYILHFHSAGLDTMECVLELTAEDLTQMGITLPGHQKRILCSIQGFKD
Source text: as §1

[3] = target: T2, 363 human kinases (including Aurora A/B/C) (Homo sapiens, UniProt Q86SG6); details: NEK8; for remaining activity at 0.1 µM: 100 nM; for remaining activity at 0.1 µM / remaining activity at 0.5 µM: read-out: % Enzyme Activity (relative to DMSO controls)
T2 sequence (Q86SG6 1-692): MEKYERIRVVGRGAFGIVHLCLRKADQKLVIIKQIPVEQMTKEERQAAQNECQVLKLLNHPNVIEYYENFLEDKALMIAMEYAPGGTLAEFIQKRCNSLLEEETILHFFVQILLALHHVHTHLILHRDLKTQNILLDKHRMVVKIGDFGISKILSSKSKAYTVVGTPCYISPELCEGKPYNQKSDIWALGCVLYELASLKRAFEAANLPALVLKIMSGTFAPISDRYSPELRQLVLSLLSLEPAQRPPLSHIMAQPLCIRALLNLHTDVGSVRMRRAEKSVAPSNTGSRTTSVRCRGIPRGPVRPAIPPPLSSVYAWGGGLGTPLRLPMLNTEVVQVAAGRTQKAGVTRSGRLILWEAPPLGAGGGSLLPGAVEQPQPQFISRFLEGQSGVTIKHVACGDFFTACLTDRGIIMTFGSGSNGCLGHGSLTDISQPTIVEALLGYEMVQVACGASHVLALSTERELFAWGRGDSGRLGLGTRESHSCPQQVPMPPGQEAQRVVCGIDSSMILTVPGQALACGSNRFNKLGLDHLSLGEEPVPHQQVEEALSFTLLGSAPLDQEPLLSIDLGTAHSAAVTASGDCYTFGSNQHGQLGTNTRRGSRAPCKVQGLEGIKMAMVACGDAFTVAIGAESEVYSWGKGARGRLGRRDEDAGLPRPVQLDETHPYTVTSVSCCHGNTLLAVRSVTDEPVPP
Source text: as §1

[4] = target: T3, 363 human kinases (including Aurora A/B/C) (Homo sapiens, UniProt Q9NR20); details: DYRK4, [ATP] 2.5 µM; for remaining activity at 0.1 µM: 100 nM; for remaining activity at 0.1 µM / remaining activity at 0.5 µM: read-out: % Enzyme Activity (relative to DMSO controls)
T3 sequence (Q9NR20 1-520): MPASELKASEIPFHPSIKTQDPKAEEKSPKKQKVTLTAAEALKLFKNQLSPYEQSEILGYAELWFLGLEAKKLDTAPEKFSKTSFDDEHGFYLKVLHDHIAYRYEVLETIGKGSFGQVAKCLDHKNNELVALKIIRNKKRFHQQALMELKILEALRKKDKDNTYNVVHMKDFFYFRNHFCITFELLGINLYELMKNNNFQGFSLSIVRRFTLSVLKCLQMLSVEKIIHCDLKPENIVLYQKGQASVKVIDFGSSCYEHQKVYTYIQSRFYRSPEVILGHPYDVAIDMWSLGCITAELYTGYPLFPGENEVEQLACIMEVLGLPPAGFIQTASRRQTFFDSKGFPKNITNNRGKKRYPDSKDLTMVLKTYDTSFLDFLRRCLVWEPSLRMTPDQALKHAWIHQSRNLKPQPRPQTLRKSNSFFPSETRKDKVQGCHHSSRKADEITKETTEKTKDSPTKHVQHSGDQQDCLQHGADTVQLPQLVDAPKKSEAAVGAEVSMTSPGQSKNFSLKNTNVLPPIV
Source text: as §1

[5] = target: 363 human kinases (including Aurora A/B/C) (Homo sapiens, UniProt P16234); details: PDGFRa; for remaining activity at 0.1 µM: 100 nM; for remaining activity at 0.1 µM / remaining activity at 0.5 µM: read-out: % Enzyme Activity (relative to DMSO controls)
Source text: as §1

[6] = target: 363 human kinases (including Aurora A/B/C) (Homo sapiens, UniProt Q96GD4); details: for remaining activity at 0.1 µM / remaining activity at 0.5 µM: read-out: % Enzyme Activity (relative to DMSO controls)
Source text: as §1

[7] = target: 363 human kinases (including Aurora A/B/C) (Homo sapiens, UniProt Q9P0L2); details: MARK1; for remaining activity at 0.1 µM: 100 nM; for remaining activity at 0.1 µM / remaining activity at 0.5 µM: read-out: % Enzyme Activity (relative to DMSO controls)
363 human kinases (including Aurora A/B/C) (Homo sapiens, UniProt Q9P0L2), sequence (Q9P0L2 whole entry): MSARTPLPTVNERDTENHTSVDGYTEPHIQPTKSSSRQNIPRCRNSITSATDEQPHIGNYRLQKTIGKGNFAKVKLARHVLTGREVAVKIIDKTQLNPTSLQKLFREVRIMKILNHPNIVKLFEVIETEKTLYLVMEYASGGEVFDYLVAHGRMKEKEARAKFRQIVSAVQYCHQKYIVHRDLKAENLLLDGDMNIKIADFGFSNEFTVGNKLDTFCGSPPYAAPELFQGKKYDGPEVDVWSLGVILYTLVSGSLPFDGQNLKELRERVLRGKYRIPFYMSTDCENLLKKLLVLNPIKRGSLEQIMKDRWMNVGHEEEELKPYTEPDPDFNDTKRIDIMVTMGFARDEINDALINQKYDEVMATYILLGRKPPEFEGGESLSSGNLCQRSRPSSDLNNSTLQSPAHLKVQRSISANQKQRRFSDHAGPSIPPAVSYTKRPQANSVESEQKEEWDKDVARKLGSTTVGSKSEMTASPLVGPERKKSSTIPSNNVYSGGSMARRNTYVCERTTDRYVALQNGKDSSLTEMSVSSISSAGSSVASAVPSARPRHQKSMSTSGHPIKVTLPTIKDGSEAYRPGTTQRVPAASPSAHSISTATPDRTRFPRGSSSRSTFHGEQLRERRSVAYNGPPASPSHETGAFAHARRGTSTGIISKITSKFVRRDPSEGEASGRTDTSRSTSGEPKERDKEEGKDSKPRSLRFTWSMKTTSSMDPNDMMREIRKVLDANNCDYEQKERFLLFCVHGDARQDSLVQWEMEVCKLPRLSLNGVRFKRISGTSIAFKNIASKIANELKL
Source text: as §1

363 human kinases (including Aurora A/B/C) (Homo sapiens, UniProt P16234), sequence (P16234 24-1089): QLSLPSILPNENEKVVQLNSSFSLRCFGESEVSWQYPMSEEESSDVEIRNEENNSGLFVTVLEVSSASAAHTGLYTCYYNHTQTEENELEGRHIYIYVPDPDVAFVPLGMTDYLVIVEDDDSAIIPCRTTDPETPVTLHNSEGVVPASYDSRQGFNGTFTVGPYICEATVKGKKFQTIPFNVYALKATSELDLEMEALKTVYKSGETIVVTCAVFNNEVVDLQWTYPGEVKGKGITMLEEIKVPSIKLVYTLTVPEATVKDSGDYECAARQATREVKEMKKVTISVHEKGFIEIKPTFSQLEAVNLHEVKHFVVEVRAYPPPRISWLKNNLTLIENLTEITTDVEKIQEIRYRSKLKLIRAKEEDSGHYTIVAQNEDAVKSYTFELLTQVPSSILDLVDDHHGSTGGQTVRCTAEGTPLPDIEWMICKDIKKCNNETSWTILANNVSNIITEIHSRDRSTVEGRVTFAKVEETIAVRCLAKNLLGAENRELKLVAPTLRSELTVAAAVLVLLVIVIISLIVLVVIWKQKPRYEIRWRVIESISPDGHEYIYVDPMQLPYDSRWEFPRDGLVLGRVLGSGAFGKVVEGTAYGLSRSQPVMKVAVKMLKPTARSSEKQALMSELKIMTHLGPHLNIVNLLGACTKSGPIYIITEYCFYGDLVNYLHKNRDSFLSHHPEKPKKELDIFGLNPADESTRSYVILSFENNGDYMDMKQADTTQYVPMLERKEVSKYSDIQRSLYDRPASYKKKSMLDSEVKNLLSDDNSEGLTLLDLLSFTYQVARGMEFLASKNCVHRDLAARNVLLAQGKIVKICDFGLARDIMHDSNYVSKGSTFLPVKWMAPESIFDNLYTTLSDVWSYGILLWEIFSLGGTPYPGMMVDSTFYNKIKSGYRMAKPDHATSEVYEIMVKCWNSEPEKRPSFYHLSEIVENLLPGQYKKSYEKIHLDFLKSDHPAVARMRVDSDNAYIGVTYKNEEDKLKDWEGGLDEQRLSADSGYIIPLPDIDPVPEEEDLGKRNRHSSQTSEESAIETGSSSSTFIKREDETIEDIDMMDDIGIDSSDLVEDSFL
363 human kinases (including Aurora A/B/C) (Homo sapiens, UniProt Q96GD4), sequence (Q96GD4 whole entry): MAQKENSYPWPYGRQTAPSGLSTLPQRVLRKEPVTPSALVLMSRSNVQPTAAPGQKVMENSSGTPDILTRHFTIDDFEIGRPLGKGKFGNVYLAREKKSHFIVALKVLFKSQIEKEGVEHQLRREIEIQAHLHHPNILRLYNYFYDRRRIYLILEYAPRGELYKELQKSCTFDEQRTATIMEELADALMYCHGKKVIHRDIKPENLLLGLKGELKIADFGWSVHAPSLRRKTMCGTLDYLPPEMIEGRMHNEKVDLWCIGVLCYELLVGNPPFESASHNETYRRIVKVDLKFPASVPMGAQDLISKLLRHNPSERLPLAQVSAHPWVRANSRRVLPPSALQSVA
363 human kinases (including Aurora A/B/C) (Homo sapiens, UniProt Q9H4B4), sequence (Q9H4B4 whole entry): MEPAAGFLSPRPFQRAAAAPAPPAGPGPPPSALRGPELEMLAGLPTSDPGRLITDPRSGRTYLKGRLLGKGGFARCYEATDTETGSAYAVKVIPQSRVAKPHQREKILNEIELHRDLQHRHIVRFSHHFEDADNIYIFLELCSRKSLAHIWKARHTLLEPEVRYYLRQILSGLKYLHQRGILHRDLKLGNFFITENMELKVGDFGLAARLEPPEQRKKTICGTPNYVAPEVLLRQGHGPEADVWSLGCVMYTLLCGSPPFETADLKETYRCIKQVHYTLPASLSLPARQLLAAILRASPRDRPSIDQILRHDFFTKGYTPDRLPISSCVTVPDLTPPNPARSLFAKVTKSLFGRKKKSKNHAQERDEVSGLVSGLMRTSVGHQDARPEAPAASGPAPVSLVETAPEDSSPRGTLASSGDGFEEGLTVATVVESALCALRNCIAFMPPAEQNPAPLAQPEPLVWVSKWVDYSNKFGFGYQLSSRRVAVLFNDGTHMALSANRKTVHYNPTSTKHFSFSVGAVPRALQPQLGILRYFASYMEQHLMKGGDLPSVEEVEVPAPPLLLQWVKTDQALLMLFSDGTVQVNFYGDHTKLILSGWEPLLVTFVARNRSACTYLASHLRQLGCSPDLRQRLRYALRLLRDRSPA

Compound	remaining activity at 0.1 µM [1]	remaining activity at 0.1 µM [2]	remaining activity at 0.1 µM [3]	remaining activity at 0.1 µM [4]	remaining activity at 0.1 µM [5]	remaining activity at 0.1 µM [6]	remaining activity at 0.1 µM [7]	remaining activity at 0.5 µM ([1]; 500 nM)	remaining activity at 0.5 µM ([2]; 500 nM)	remaining activity at 0.5 µM ([3]; 500 nM)	remaining activity at 0.5 µM ([4]; 500 nM)	remaining activity at 0.5 µM ([5]; 500 nM)	remaining activity at 0.5 µM ([7]; 500 nM)	other results
CCn1cc(-c2ccnc3[nH]c(-c4cccc(CN(C)C)c4)cc23)c(-c2ccc(NC(=O)N(C)C)cc2)n1 [GSK1070916]	101%	85.1%	97.8%	95.3%	94%	12.8%	93%	–	–	–	–	–	–	–
O=C(c1cccc(Cl)c1F)N1CCN(Cc2cccc(Nc3nccs3)n2)CC1 [MK-8745]	–	–	–	–	–	–	–	102%	58.3%	91.6%	89.1%	99.8%	96.5%	% Enzyme Activity (relative to DMSO controls) ([1]; 500 nM): 99.37%; % Enzyme Activity (relative to DMSO controls) ([2]; 500 nM): 58.24%; % Enzyme Activity (relative to DMSO controls) ([3]; 500 nM): 91.43%; % Enzyme Activity (relative to DMSO controls) ([4]; 500 nM): 88.59%; % Enzyme Activity (relative to DMSO controls) ([5]; 500 nM): 99.66%; % Enzyme Activity (relative to DMSO controls) ([6]; Aurora B, [ATP] 100 µM, 500 nM): 59.14%; remaining activity at 0.5 µM ([6]; Aurora B, [ATP] 100 µM, 500 nM): 62.3%; % Enzyme Activity (relative to DMSO controls) ([7]; 500 nM): 96.30%
O=C(O)[C@]1(Cc2cccc(Nc3nccs3)n2)CC[C@@H](Oc2cccc(Cl)c2F)CC1 [MK-5108]	103%	47.6%	81.2%	99.4%	97.1%	9.6%	117%	104%	19.1%	82.2%	93.6%	92.6%	98.6%	remaining activity at 0.5 µM [6]: 2.85%
